How the values were obtained:
cerebral ischemia = experiment: Unilateral, multifocal cerebral ischemia in the rat (microsphere embolization); format: in vivo, male Sprague-Dawley SPF rats
Description: (b) Unilateral, multifocal cerebral ischemia in the rat. In awake, male Sprague-Dawley SPF rats, aged from 8 to 9 months, a permanent, unilateral cerebral ischemia (or embolization) is caused by introduction of 2000 microspheres (provided by 3M, St. Paul, U.S.A.; diameter 58±2 μm) into the right carotid stream (A. M. BRALET et al., Stroke, 10, (1979), 34-38; M. LE PONCIN-LAFITTE et al., Pathol. Biol. (Paris), 30, (1982), 289-293) after the permanent ligature of the right pterygopalatine artery (Y. KIYOTA et al., Pharmacol. Biochem. Behav. 24, (1986), 687-692).
The compound to be studied is administered for the first time 30 minutes before, and for the second time 30 minutes after embolization, while the control animals receive only a physiological salt solution. The animals are then allowed to rest. After 6 days of recovery, the surviving animals are measured for:
(1) the residual neurological deficit obtained from the test of posture and gait of the animals (Test A, maximum score: 4 points). This test evaluates:
(a) abnormal positioning of the hind paws (S. IRWIN, Psychophamacologia (Berlin), 13, (1968), 222-257);
(b) contralateral inclination of the body during locomotion;
(c) homolateral longitudinal flexion of the body, and
(d) abnormal gait (B. KOLB et al., loc. cit.).
(2) The sensorimotor functions (spontaneous motility, grasping reflex, placing reactions both visual and by loss of support (Test B, maximum score: 10 points); (C. CAPDEVILLE et al., loc. cit.).
(3) The lateralized sensorimotor response (on the contralateral side) (Test C, maximum score: 3 points). This is evaluated by combining the measurements of visual placing reflex, head orientation relfex towards a lateral sensory stimulus, and the cutaneous plantar reflex (C. CAPDEVILLE et al., loc. cit.; J. F. MARSHALL et al., Science (Washington), 174, (1971), 523-525).
(4) Tactile extinction on the left side (Test D, maximum score: 300 points). By contrast with the other tests mentioned above, for which the deficit is lower when the score is higher, the deficit is here more pronounced when the score approaches 300 (T. SCHALLERT et al., Pharmacol. Biochem. Behav. 16, (1982), 455-462).
On the seventh day of recovery, the edema present in various ipsilateral cerebral structures is also measured (M. LE PONCIN-LAFITTE et al., loc. cit.).
Table IV gives the results obtained in tests A to D for compound A, administered intraperitoneally at the dose of 0.76 μg/kg (3.2 nmoles/kg), i.e. The mean of the neurological scores determined for the whole group of surviving animals of the control group and of the treated group after 6 days of recovery. Also indicated in the Table is the mean variation (in g) of body weight measured on the 7th day of recovery. The statistical significant (P) of the difference between the mean values calculated for the control animals and for the treated animals is evaluated by the Mann-Whitney test.
In Table V, the quantity of water (as an average of the percentage) retained in various ipsilateral cerebral structures in the control animals and in the treated animals surviving at the 7th day after embolization, is indicated.

[1] = target: T1, presynaptic α2 -adrenergic receptors (Cavia porcellus, UniProt Q60474); experiment: Stimulation of the isolated guinea-pig atria (reduction in tachycardia)
T1 construct: Stimulation of a guinea-pig ileum; from tissue; host or cells: guinea-pig ileum longitudinal muscle strips
T1 sequence (Q60474 1-464): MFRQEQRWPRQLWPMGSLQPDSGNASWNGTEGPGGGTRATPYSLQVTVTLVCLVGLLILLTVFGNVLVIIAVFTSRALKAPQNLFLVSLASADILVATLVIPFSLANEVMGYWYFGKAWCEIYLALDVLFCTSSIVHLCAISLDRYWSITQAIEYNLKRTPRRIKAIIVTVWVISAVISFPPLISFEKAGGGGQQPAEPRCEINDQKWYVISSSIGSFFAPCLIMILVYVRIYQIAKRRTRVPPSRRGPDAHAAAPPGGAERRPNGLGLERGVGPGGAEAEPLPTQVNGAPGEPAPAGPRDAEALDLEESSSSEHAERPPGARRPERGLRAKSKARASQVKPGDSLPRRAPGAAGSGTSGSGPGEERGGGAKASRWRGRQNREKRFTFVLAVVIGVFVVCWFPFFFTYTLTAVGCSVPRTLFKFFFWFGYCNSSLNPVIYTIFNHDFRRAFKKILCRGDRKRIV
Description: (b) Stimulation of the isolated guinea-pig atria. The release of noradrenalin at the level of the nerve endings is mediated by a feedback regulating mechanism through the presynaptic α2 -adrenergic receptors. […] Ed. D. S. DAVIES, J. L. REID, Pitman, London.
The electrical stimulation of the isolated guinea-pig atria induces a release of noradrenalin which results in an increase in the rate of the heart beat (tachycardia). This tachycardia is inhibited by an α2 -agonist such as, for example, clonidine, in a proportion which depends on the dose of the agonist used. The action of the α2 -agonist may be limited in the presence of an α2 -specific antagonist such as α-yohimbine.
The in vitro activity of the compounds of the invention on the presynaptic α2 -adrenergic receptors has been studied on the isolated guinea-pig atria, electrically stimulated according to the method described by I. C. MEDGETT et al., Naunyn-Schmiedeberg's Arch. Pharmacol. 304, (1978), 215-221. The compound to be studied is tested in increasing concentrations ranging from 10^-10 to 10^-3 mole/l. The concentration (IC30 in mole/l) which causes a 30% reduction in the maximum tachycardia obtained initially during the electrical stimulation of the atria in the absence of the compound to be tested, is determined.
On the other hand, in the presence of a concentration of 10^-6 mole/l of α-yohimbine, the concentration of compound A necessary to obtain a reduction of 30% in the tachycardia is greater than 10^-7 mole/l.

## Cl.NC(=O)c1cccc(Cc2c[nH]cn2)c1O [A, 2-hydroxyl-3-[(1H-imidazol-4-yl)methyl]-benzamide hydrochloride]
Cerebral ischemia; 0.76 μg/kg i.p., 7th day of recovery, control -5.7, P <0.05
  weight variation: +0.8 g
Cerebral ischemia; 0.76 μg/kg i.p., lateralized sensorimotor response, maximum 3 points, control 1.0, P <0.005
  Mean neurological score 6 days after embolization, test C: 2.0
Cerebral ischemia; 0.76 μg/kg i.p., posture and gait, maximum 4 points, control 1.0, P <0.01
  Mean neurological score 6 days after embolization, test A: 2.0
Cerebral ischemia; 0.76 μg/kg i.p., sensorimotor functions, maximum 10 points, control 7.3, P <0.05
  Mean neurological score 6 days after embolization, test B: 8.0
Cerebral ischemia; 0.76 μg/kg i.p., tactile extinction, maximum 300 points, higher = greater deficit, control 243, P <0.05
  Mean neurological score 6 days after embolization, test D: 96
Cerebral ischemia; 7th day after embolization, control 77.04, P < 0.05
  Quantity of water in ipsilateral diencephalon: 76.32 average %
Cerebral ischemia; 7th day after embolization, control 80.20, P < 0.05
  Quantity of water in ipsilateral hippocampus: 79.79 average %
Cerebral ischemia; 7th day after embolization, control 81.33, P < 0.01
  Quantity of water in ipsilateral cortex: 80.36 average %
Cerebral ischemia; 7th day after embolization, control 81.57, P < 0.005
  Quantity of water in ipsilateral corpus striatum: 80.05 average %
[1]; in the presence of 10^-6 mole/l of α-yohimbine
  concentration necessary to obtain a reduction of 30% in the tachycardia: greater than 10^-7 mole/l
[1]; isolated guinea-pig atria, electrical stimulation, read-out: IC30 (30% reduction in the maximum tachycardia)
  IC30: 0.9 nM

— patent US4923865A, “Substituted 1-(1H-imidazol-4-yl)alkyl-benzamides as anti-ischemics and as alpha-2-adrenergic receptor agonists” (U C B Societe Anonyme, priority 1988, dated 1990)
